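Where inhibition never reached the appropriate level, the endpoint shown equals the highest concentration tested. Otherwise, values were interpolated linearly from a five-concentration, 48-hour dose response in 96-well plates. GI50 = concentration required for 50% inhibition of growth. TGI: total growth inhibition.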
Columns and labels:
Assay in all cases: growth of human tumour cells (NCI), 48 h; in the data active = GI50 below about 0.43 µM; inactive = the rest
786-0 renal = system: 786-0 renal
A549 NSCLC = system: A549 NSCLC
ACHN renal = system: ACHN renal
CAKI-1 renal = system: CAKI-1 renal
COLO 205 colon = system: COLO 205 colon
DU-145 prostate = system: DU-145 prostate
EKVX NSCLC = system: EKVX NSCLC
HCC-2998 colon = system: HCC-2998 colon
HCT-116 colon = system: HCT-116 colon
HCT-15 colon = system: HCT-15 colon
HOP-62 NSCLC = system: HOP-62 NSCLC
HOP-92 NSCLC = system: HOP-92 NSCLC
HS 578T breast = system: HS 578T breast
IGROV1 ovarian = system: IGROV1 ovarian
K-562 leukemia = system: K-562 leukemia
KM12 colon = system: KM12 colon
LOX IMVI melanoma = system: LOX IMVI melanoma
M14 melanoma = system: M14 melanoma
MCF7 breast = system: MCF7 breast
MDA-MB-231 breast = system: MDA-MB-231 breast
MDA-MB-435 = system: MDA-MB-435
NCI-H226 lung = system: NCI-H226 lung
NCI-H23 lung = system: NCI-H23 lung
NCI-H460 lung = system: NCI-H460 lung
NCI-H522 lung = system: NCI-H522 lung
NCI/ADR-RES ovarian = system: NCI/ADR-RES ovarian
OVCAR-4 ovarian = system: OVCAR-4 ovarian
OVCAR-5 ovarian = system: OVCAR-5 ovarian
OVCAR-8 ovarian = system: OVCAR-8 ovarian
PC-3 prostate = system: PC-3 prostate
RPMI-8226 leukemia = system: RPMI-8226 leukemia
RXF 393 renal = system: RXF 393 renal
SF-268 CNS = system: SF-268 CNS
SF-295 CNS = system: SF-295 CNS
SF-539 CNS = system: SF-539 CNS
SK-MEL-2 melanoma = system: SK-MEL-2 melanoma
SK-MEL-28 melanoma = system: SK-MEL-28 melanoma
SK-MEL-5 melanoma = system: SK-MEL-5 melanoma
SK-OV-3 ovarian = system: SK-OV-3 ovarian
SN12C renal = system: SN12C renal
SNB-19 CNS = system: SNB-19 CNS
SNB-75 CNS = system: SNB-75 CNS
SR leukemia = system: SR leukemia
SW-620 colon = system: SW-620 colon
T-47D breast = system: T-47D breast
TK-10 renal = system: TK-10 renal
U251 CNS = system: U251 CNS
UACC-257 melanoma = system: UACC-257 melanoma
UACC-62 melanoma = system: UACC-62 melanoma
UO-31 renal = system: UO-31 renal
A498 renal = system: A498 renal
BT-549 breast = system: BT-549 breast
CCRF-CEM leukemia = system: CCRF-CEM leukemia
HL-60(TB) leukemia = system: HL-60(TB) leukemia
HT29 colon = system: HT29 colon
MALME-3M melanoma = system: MALME-3M melanoma
MOLT-4 leukemia = system: MOLT-4 leukemia
OVCAR-3 ovarian = system: OVCAR-3 ovarian

COc1cc2cnc3c(c2c(OC)c1OC)Cc1cc2c(cc1-3)OCO2
10.9 µM: TGI (HOP-62 NSCLC)
> 29.1 µM: TGI (ACHN renal)
> 87.9 µM: TGI (K-562 leukemia)
> 27.8 µM: TGI (MDA-MB-231 breast)
13.3 µM: TGI (SK-MEL-5 melanoma)
> 65.1 µM: TGI (SK-MEL-2 melanoma)
> 28.5 µM: TGI (HOP-92 NSCLC)
> 55.1 µM: TGI (M14 melanoma)
12 µM: TGI (SF-539 CNS)
0.446 µM: TGI (MDA-MB-435)
0.874 µM: TGI (KM12 colon)
3.46 µM: TGI (NCI-H522 lung)
1.76 µM: TGI (CAKI-1 renal)
47.9 µM: TGI (RXF 393 renal)
active: GI50 (ACHN renal) 0.243 µM | GI50 (CAKI-1 renal) 0.256 µM | GI50 (HCT-116 colon) 0.0694 µM | GI50 (HCT-15 colon) 0.102 µM | GI50 (HOP-62 NSCLC) 0.234 µM | GI50 (K-562 leukemia) 0.156 µM | GI50 (KM12 colon) 0.255 µM | GI50 (LOX IMVI melanoma) 0.0789 µM | GI50 (MDA-MB-435) 0.207 µM | GI50 (NCI-H522 lung) 0.408 µM | GI50 (SR leukemia) 0.0491 µM | GI50 (U251 CNS) 0.31 µM | GI50 (UACC-62 melanoma) 0.204 µM
> 50.7 µM: TGI (HS 578T breast)
11.2 µM: TGI (UACC-62 melanoma)
> 29.4 µM: TGI (OVCAR-8 ovarian)
> 74.8 µM: TGI (NCI/ADR-RES ovarian)
inactive: GI50 (786-0 renal) 3.23 µM | GI50 (A549 NSCLC) 2.64 µM | GI50 (COLO 205 colon) 0.743 µM | GI50 (DU-145 prostate) > 36.1 µM | GI50 (EKVX NSCLC) 7.54 µM | GI50 (HCC-2998 colon) > 100 µM | GI50 (HS 578T breast) 2.38 µM | GI50 (IGROV1 ovarian) 2.86 µM | GI50 (M14 melanoma) 0.55 µM | GI50 (MCF7 breast) 1.32 µM | GI50 (MDA-MB-231 breast) 0.71 µM | GI50 (NCI-H226 lung) 88.3 µM | GI50 (NCI-H23 lung) 2.3 µM | GI50 (NCI-H460 lung) 1.39 µM | GI50 (NCI/ADR-RES ovarian) 10.8 µM | GI50 (OVCAR-4 ovarian) > 100 µM | GI50 (OVCAR-5 ovarian) > 40.8 µM | GI50 (PC-3 prostate) 4.49 µM | GI50 (RPMI-8226 leukemia) 0.559 µM | GI50 (RXF 393 renal) 10.9 µM | GI50 (SF-268 CNS) 2.74 µM | GI50 (SF-295 CNS) 0.591 µM | GI50 (SF-539 CNS) 0.869 µM | GI50 (SK-MEL-2 melanoma) 1.41 µM | GI50 (SK-MEL-28 melanoma) 42.6 µM | GI50 (SK-MEL-5 melanoma) 0.682 µM | GI50 (SK-OV-3 ovarian) 69.3 µM | GI50 (SN12C renal) 0.602 µM | GI50 (SNB-19 CNS) > 100 µM | GI50 (SNB-75 CNS) > 100 µM | GI50 (SW-620 colon) 1.35 µM | GI50 (T-47D breast) > 100 µM | GI50 (TK-10 renal) 0.752 µM | GI50 (UACC-257 melanoma) 0.99 µM | GI50 (UO-31 renal) 10.9 µM
> 82.5 µM: TGI (786-0 renal)
2.9 µM: TGI (TK-10 renal)
> 24.8 µM: TGI (MCF7 breast)
> 32.8 µM: TGI (SF-295 CNS)
> 100 µM: TGI (A549 NSCLC) | TGI (COLO 205 colon) | TGI (DU-145 prostate) | TGI (EKVX NSCLC) | TGI (HCC-2998 colon) | TGI (HCT-116 colon) | TGI (IGROV1 ovarian) | TGI (LOX IMVI melanoma) | TGI (NCI-H226 lung) | TGI (NCI-H23 lung) | TGI (NCI-H460 lung) | TGI (OVCAR-4 ovarian) | TGI (OVCAR-5 ovarian) | TGI (PC-3 prostate) | TGI (RPMI-8226 leukemia) | TGI (SF-268 CNS) | TGI (SK-MEL-28 melanoma) | TGI (SK-OV-3 ovarian) | TGI (SN12C renal) | TGI (SNB-19 CNS) | TGI (SNB-75 CNS) | TGI (SW-620 colon) | TGI (T-47D breast) | TGI (UACC-257 melanoma) | TGI (UO-31 renal)
> 32.3 µM: TGI (HCT-15 colon)
0.305 µM: TGI (SR leukemia)
> 21.8 µM: TGI (U251 CNS)

c1ccc(-c2nnc(CCCCCCCCc3nnc(-c4ccccc4)o3)o2)cc1
61 µM: TGI (NCI-H522 lung)
91.6 µM: TGI (HCC-2998 colon)
> 100 µM: TGI (786-0 renal) | TGI (A498 renal) | TGI (A549 NSCLC) | TGI (ACHN renal) | TGI (BT-549 breast) | TGI (CAKI-1 renal) | TGI (CCRF-CEM leukemia) | TGI (COLO 205 colon) | TGI (DU-145 prostate) | TGI (EKVX NSCLC) | TGI (HCT-116 colon) | TGI (HCT-15 colon) | TGI (HL-60(TB) leukemia) | TGI (HOP-62 NSCLC) | TGI (HOP-92 NSCLC) | TGI (HT29 colon) | TGI (IGROV1 ovarian) | TGI (K-562 leukemia) | TGI (KM12 colon) | TGI (LOX IMVI melanoma) | TGI (M14 melanoma) | TGI (MALME-3M melanoma) | TGI (MCF7 breast) | TGI (MDA-MB-231 breast) | TGI (MDA-MB-435) | TGI (MOLT-4 leukemia) | TGI (NCI-H226 lung) | TGI (NCI-H23 lung) | TGI (NCI-H460 lung) | TGI (NCI/ADR-RES ovarian) | TGI (OVCAR-3 ovarian) | TGI (OVCAR-4 ovarian) | TGI (OVCAR-5 ovarian) | TGI (OVCAR-8 ovarian) | TGI (PC-3 prostate) | TGI (SF-268 CNS) | TGI (SF-295 CNS) | TGI (SF-539 CNS) | TGI (SK-MEL-2 melanoma) | TGI (SK-MEL-28 melanoma) | TGI (SK-MEL-5 melanoma) | TGI (SK-OV-3 ovarian) | TGI (SN12C renal) | TGI (SNB-19 CNS) | TGI (SNB-75 CNS) | TGI (SW-620 colon) | TGI (TK-10 renal) | TGI (U251 CNS) | TGI (UACC-257 melanoma) | TGI (UO-31 renal)
